Laboratory results taken from ChEMBL document CHEMBL1127314, “A new potent and selective histamine H3 receptor agonist, 4-(1H-imidazol-4-ylmethyl)piperidine” (J Med Chem, 1994).

Assays:
[1] = target: Histamine H3 receptor (Cavia porcellus) (UniProt Q9JI35); assay: KL value determined on H3 receptor
[2] = pD2 value was determined on jejunum preparations of eight different animals; format: ADME, tissue-based
[3] = target: Histamine H3 receptor (Cavia porcellus) (UniProt Q9JI35); assay: H3 receptor agonistic activity of the compound; format: functional
[4] = pKi log value determined for the guinea pig H1 receptor; format: ADME

Chain of Histamine H3 receptor (Cavia porcellus) (Q9JI35 whole entry): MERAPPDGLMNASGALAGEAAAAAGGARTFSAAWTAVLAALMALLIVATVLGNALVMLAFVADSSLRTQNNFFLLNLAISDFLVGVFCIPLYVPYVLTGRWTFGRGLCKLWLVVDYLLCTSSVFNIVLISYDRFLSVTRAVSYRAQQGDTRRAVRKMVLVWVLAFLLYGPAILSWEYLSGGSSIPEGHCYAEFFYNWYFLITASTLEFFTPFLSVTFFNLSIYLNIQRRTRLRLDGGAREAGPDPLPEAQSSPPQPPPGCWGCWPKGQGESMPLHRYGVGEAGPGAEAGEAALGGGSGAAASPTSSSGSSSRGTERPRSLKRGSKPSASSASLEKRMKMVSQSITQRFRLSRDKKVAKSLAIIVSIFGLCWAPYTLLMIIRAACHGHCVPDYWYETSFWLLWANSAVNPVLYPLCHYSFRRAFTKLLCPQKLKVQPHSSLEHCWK

SMILES	KL [1] [µM]	pD2 [2]	KH [3] [nM]	Log Ki [4]
C[C@@H](N)Cc1c[nH]cn1	0.22	7.8	4.3	
c1nc(CC2CCNCC2)c[nH]1 [IMMEPIP]	1.01	8	2.7	-4.79
